PubChem BioAssay AID1918949 (Molecular Pharmacology Branch, DTP, NCI, 2023)
pIC50: −log10 of the molar value. “And” between values parts separate entries of the source, which are not always exact repeats. Equal entries are not always repeated.

Tested on: K24384-001-R-PDC complex spheroid viability
Test: Anticancer human tumor K24384-001-R-PDC patient-derived pancreatic adenocarcinoma cell line growth inhibition
Settings: for viability, T/C: stronger effect = lower value
How it was run: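 Multicellular complex spheroids of tumor cells with human endothelial cells (HUVEC) and mesenchymal stem cells; the LSD1 inhibitor iadademstat was combined with standard-of-care or investigational agents. Top concentration at or near clinical Cmax, half-log dilutions; final DMSO ≤0.25%.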

[1] = curve of first compound, second compound 0.1 µM
[2] = curve of first compound, second compound 0.316 µM
[3] = curve of first compound, second compound 1 µM
[4] = curve of first compound, second compound 3.16 µM
[5] = curve of first compound, second compound 10 µM
[6] = second compound 0.1 µM, first compound 0.00949 µM
[7] = second compound 0.1 µM, first compound 0.03 µM
[8] = second compound 0.1 µM, first compound 0.0949 µM
[9] = second compound 0.1 µM, first compound 0.3 µM
[10] = second compound 0.1 µM, first compound 0.949 µM
[11] = second compound 0.1 µM, first compound 3 µM
[12] = second compound 0.316 µM, first compound 0.00949 µM
[13] = second compound 0.316 µM, first compound 0.03 µM
[14] = second compound 0.316 µM, first compound 0.0949 µM
[15] = second compound 0.316 µM, first compound 0.3 µM
[16] = second compound 0.316 µM, first compound 0.949 µM
[17] = second compound 0.316 µM, first compound 3 µM
[18] = second compound 1 µM, first compound 0.00949 µM
[19] = second compound 1 µM, first compound 0.03 µM
[20] = second compound 1 µM, first compound 0.0949 µM
[21] = second compound 1 µM, first compound 0.3 µM
[22] = second compound 1 µM, first compound 0.949 µM
[23] = second compound 1 µM, first compound 3 µM
[24] = second compound 3.16 µM, first compound 0.00949 µM
[25] = second compound 3.16 µM, first compound 0.03 µM
[26] = second compound 3.16 µM, first compound 0.0949 µM
[27] = second compound 3.16 µM, first compound 0.3 µM
[28] = second compound 3.16 µM, first compound 0.949 µM
[29] = second compound 3.16 µM, first compound 3 µM
[30] = second compound 10 µM, first compound 0.00949 µM
[31] = second compound 10 µM, first compound 0.03 µM
[32] = second compound 10 µM, first compound 0.0949 µM
[33] = second compound 10 µM, first compound 0.3 µM
[34] = second compound 10 µM, first compound 0.949 µM
[35] = second compound 10 µM, first compound 3 µM
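Note: spheroids exposed to agents for seven days before luminescence viability reading.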
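Throughout, for viability, T/C: 100% = DMSO vehicle control viability.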

O=C(C=Cc1cccc(S(=O)(=O)Nc2ccccc2)c1)NO + NC1CCC(NC2CC2c2ccccc2)CC1
pIC50 [1]: 6.58
pIC50 [2]: 6.62
pIC50 [3]: 6.62
pIC50 [4]: 6.58
pIC50 [5]: 6.72
viability, T/C [6]: 109%
viability, T/C [7]: 112%
viability, T/C [8]: 116%
viability, T/C [9]: 41.7%
viability, T/C [10]: 3.48%
viability, T/C [11]: 0.14%
viability, T/C [12]: 131%
viability, T/C [13]: 107%
viability, T/C [14]: 95.1%
viability, T/C [15]: 39.4%
viability, T/C [16]: 4.3%
viability, T/C [17]: 0.15%
viability, T/C [18]: 90.3%
viability, T/C [19]: 121%
viability, T/C [20]: 95.8%
viability, T/C [21]: 39.1%
viability, T/C [22]: 4.13%
viability, T/C [23]: 0.15%
viability, T/C [24]: 109%
viability, T/C [25]: 129%
viability, T/C [26]: 113%
viability, T/C [27]: 42.5%
viability, T/C [28]: 4.22%
viability, T/C [29]: 0.16%
viability, T/C [30]: 107%
viability, T/C [31]: 118%
viability, T/C [32]: 73%
viability, T/C [33]: 35.7%
viability, T/C [34]: 3.52%
viability, T/C [35]: 0.24%

CC1(C)CCC(CN2CCN(c3ccc(C(=O)NS(=O)(=O)c4ccc(NCC5CCOCC5)c([N+](=O)[O-])c4)c(Oc4cnc5[nH]ccc5c4)c3)CC2)=C(c2ccc(Cl)cc2)C1 + NC1CC1c1ccc(-c2cccc(O)c2)cc1
pIC50 [1]: 5.47
pIC50 [2]: 5.59
pIC50 [3]: 5.57
pIC50 [4]: 5.57
pIC50 [5]: 5.71
viability, T/C (second compound 0.1 µM, first compound 0.0316 µM): 90.7%
viability, T/C (second compound 0.1 µM, first compound 0.1 µM): 83.9%
viability, T/C (second compound 0.1 µM, first compound 0.316 µM): 88.3%
viability, T/C (second compound 0.1 µM, first compound 1 µM): 87.6%
viability, T/C (second compound 0.1 µM, first compound 3.16 µM): 52.6%
viability, T/C (second compound 0.1 µM, first compound 10 µM): 0.98%
viability, T/C (second compound 0.316 µM, first compound 0.0316 µM): 82.7%
viability, T/C (second compound 0.316 µM, first compound 0.1 µM): 76.7%
viability, T/C (second compound 0.316 µM, first compound 0.316 µM): 90%
viability, T/C (second compound 0.316 µM, first compound 1 µM): 80.4%
viability, T/C (second compound 0.316 µM, first compound 3.16 µM): 43.7%
viability, T/C (second compound 0.316 µM, first compound 10 µM): 1.07%
viability, T/C (second compound 1 µM, first compound 0.0316 µM): 91.5%
viability, T/C (second compound 1 µM, first compound 0.1 µM): 63.7%
viability, T/C (second compound 1 µM, first compound 0.316 µM): 63.8%
viability, T/C (second compound 1 µM, first compound 1 µM): 83.3%
viability, T/C (second compound 1 µM, first compound 3.16 µM): 45.7%
viability, T/C (second compound 1 µM, first compound 10 µM): 0.94%
viability, T/C (second compound 3.16 µM, first compound 0.0316 µM): 83.3%
viability, T/C (second compound 3.16 µM, first compound 0.1 µM): 93.2%
viability, T/C (second compound 3.16 µM, first compound 0.316 µM): 78.8%
viability, T/C (second compound 3.16 µM, first compound 1 µM): 71%
viability, T/C (second compound 3.16 µM, first compound 3.16 µM): 46.9%
viability, T/C (second compound 3.16 µM, first compound 10 µM): 0.99%
viability, T/C (second compound 10 µM, first compound 0.0316 µM): 86.3%
viability, T/C (second compound 10 µM, first compound 0.1 µM): 81.5%
viability, T/C (second compound 10 µM, first compound 0.316 µM): 67.9%
viability, T/C (second compound 10 µM, first compound 1 µM): 62.4%
viability, T/C (second compound 10 µM, first compound 3.16 µM): 44.4%
viability, T/C (second compound 10 µM, first compound 10 µM): 1%

CCc1c2c(nc3ccc(O)cc13)-c1cc3c(c(=O)n1C2)COC(=O)[C@]3(O)CC
viability, T/C (compound 0.000949 µM): 54.8% and 42%
viability, T/C (compound 0.003 µM): 49.9% and 39.2%
viability, T/C (compound 0.00949 µM): 32.7%
viability, T/C (compound 0.03 µM): 9.62% and 11.7%
viability, T/C (compound 0.0949 µM): 6.2% and 6.67%
viability, T/C (compound 0.3 µM): 5% and 5.21%
pIC50 (curve of compound): 8.50 and > 9.02

CC1COCCN1c1cc(C2(S(C)(=N)=O)CC2)nc(-c2ccnc3[nH]ccc23)n1 (centres undefined)
viability, T/C (compound 0.0316 µM): 103% and 94.9%
viability, T/C (compound 0.1 µM): 97.9% and 102%
viability, T/C (compound 0.316 µM): 107% and 81.7%
viability, T/C (compound 1 µM): 75.8% and 67.1%
viability, T/C (compound 3.16 µM): 45.8% and 42.4%
viability, T/C (compound 10 µM): 48.6% and 44.5%
pIC50 (curve of compound): 5.55 and 5.60

COc1cc(C2c3cc4c(cc3C(OC3OC5COC(C)OC5C(O)C3O)C3COC(=O)C23)OCO4)cc(OC)c1O (centres undefined) + NC1CCC(NC2CC2c2ccccc2)CC1
pIC50 [1]: 5.88
pIC50 [2]: 5.73
pIC50 [3]: 5.58
pIC50 [4]: < 5.52
pIC50 [5]: 5.58
viability, T/C [6]: 91.2%
viability, T/C [7]: 92.8%
viability, T/C [8]: 86.4%
viability, T/C [9]: 65.3%
viability, T/C [10]: 55.9%
viability, T/C [11]: 42.8%
viability, T/C [12]: 107%
viability, T/C [13]: 83.3%
viability, T/C [14]: 79.7%
viability, T/C [15]: 75.7%
viability, T/C [16]: 57.2%
viability, T/C [17]: 43.2%
viability, T/C [18]: 98.4%
viability, T/C [19]: 97.2%
viability, T/C [20]: 69.3%
viability, T/C [21]: 72.6%
viability, T/C [22]: 59.6%
viability, T/C [23]: 47.8%
viability, T/C [24]: 87.8%
viability, T/C [25]: 102%
viability, T/C [26]: 67.9%
viability, T/C [27]: 65%
viability, T/C [28]: 57.9%
viability, T/C [29]: 54%
viability, T/C [30]: 88.2%
viability, T/C [31]: 98.4%
viability, T/C [32]: 90.1%
viability, T/C [33]: 73.2%
viability, T/C [34]: 66%
viability, T/C [35]: 47.4%
